Laboratory results from patent US12465594B2 (Brown University, priority 2018, dated 2025).

What was measured:
[1] = target: HEK293 cells expressing FLAG-CRFBP(10 kD)-HA-CRF2α (Homo sapiens, UniProt P24387+Q13324); conditions: 384-well format
[2] = tested on: NMDAR EPSCs in VTA dopamine neurons; assay: Electrophysiology: CRF potentiation of NMDAR EPSCs in VTA slices; assay type: cell-based, mouse; conditions: CRF 1 μM, VTA-DA neurons, acute brain slices
From the text: Male and female mice (n=44; 6-10 weeks) were anesthetized with Euthasol (Butler-Schein). Brains were rapidly removed and placed in ice-cold NMDG-based artificial Cerebrospinal Fluid (aCSF) cutting solution containing (in mM): 92 NMDG, 20 HEPES, 25 glucose, 30 NaHCO3, 2.5 KCl, 1.2 NaPO4 saturated with 95% O2/5% CO2 with an osmolarity of 305-308 mOsm (Advanced Cell Diagnostics). The brain was cut in ice-cold NMDG solution to obtain horizontal VTA slices, 230 μm thick, using a Leica vibratome (Leica VT1200) and slices were incubated in warm NMDG solution (34° C.) for <5 minutes before being placed in a modified aCSF holding solution (in mM): 92 NaCl, 20 HEPES, 25 glucose, 30 NaHCO3, 2.5 KCl, 1.2 NaPO4 (305-308 mOsm). Slices were incubated at room temperature for at least 1 hour before recording.
Whole-cell patch clamp of the lateral VTA was performed under the guidance of IR-DIC optics on an Olympus BX5iWI microscope. Cells were patched with 1.8-3 MO resistance glass microelectrodes containing the following internal solution (in mM): 117 cesium methanesulfonate, 20 HEPES, 0.4 EGTA, 2.8 NaCl, 5 TEA-CI, 4 Mg-ATP, 0.4 Na-GTP, and 5 QX-314 (280-285 mOsm). Dopamine cells were identified by the following criteria: 1) large multipolar soma, 30-40 μm in diameter, 2) tonic firing of <4 Hz when cell attached, 3) large […] with negative voltage step (identified immediately following break in). […] Series resistance was monitored online. […]
For electrophysiology measures, excitatory post-synaptic currents (EPSCs) were normalized to 7 minute of averaged baseline responses, prior to drug application. […] Results are reported as M±SEM a in bar graphs comparing drug to vehicle and analyzed by a one-way ANOVA and post-hoc comparisons to vehicle were performed using a Bonferroni multiple comparisons correction measures (**p<0.01). […]
NMDAR excitatory postsynaptic currents (EPSCs) were recorded from VTA dopamine (DA) neurons in acute brain slices from male and female mice. […]

Chain of HEK293 cells expressing FLAG-CRFBP(10 kD)-HA-CRF2α (P24387+Q13324 fused): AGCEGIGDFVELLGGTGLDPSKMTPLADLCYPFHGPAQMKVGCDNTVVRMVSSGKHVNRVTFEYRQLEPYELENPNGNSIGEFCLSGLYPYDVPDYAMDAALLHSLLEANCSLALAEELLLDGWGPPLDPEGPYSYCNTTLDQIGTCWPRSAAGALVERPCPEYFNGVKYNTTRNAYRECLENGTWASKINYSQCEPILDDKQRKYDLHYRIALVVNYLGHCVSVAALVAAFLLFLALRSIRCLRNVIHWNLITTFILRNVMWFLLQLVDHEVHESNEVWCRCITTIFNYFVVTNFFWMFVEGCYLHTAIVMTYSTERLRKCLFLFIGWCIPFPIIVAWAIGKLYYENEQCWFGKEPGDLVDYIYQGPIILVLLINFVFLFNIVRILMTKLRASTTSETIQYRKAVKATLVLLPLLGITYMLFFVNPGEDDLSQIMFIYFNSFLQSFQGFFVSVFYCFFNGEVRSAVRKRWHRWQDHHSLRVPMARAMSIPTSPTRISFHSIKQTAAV

corticotropin releasing factor [CRF, reference compound]
EC80, CRF-induced intracellular calcium release [1]: 1 µM | Effect of CRF on NMDAR EPSCs [2]: potentiated NMDA receptor EPSCs
